Results published in patent publication US10336732B2, “1-heterocyclyl isochromanyl compounds and analogs for treating CNS disorders” (Sunovion Pharmaceuticals Inc., priority 2015, dated 2019).

The molecules below were run on mice (assay: Neuropharmacological assay (SmartCube), behavioral signature of compound-treated mice). Conditions: i.p. 15 min before behavioral test, most efficacious dose(s) of 3 doses.
Format: in vivo
Outline: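 Read-out is an automated video-based behavioral signature, scored as per-class probabilities (e.g., anxiolytic, antidepressant) against reference compounds. Dosing was i.p. at three doses, 15 min pre-test, in NMP, polyethylene glycol and propylene glycol. Values shown are from the most efficacious dose(s).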

Row | SMILES | AD: ADHD (probability that behavioral signature matches class) | AG: analgesic (probability that behavioral signature matches class) | AX: anxiolytic (probability that behavioral signature matches class) | CE: cognitive enhancer (probability that behavioral signature matches class) | DP: anti-depressant (probability that behavioral signature matches class) | HA: hallucinogen (probability that behavioral signature matches class) | MS: mood stabilizer (probability that behavioral signature matches class) | PS: anti-psychotic (probability that behavioral signature matches class) | SD: sedative hypnotic (probability that behavioral signature matches class) | UN: uncharacterized CNS activity (probability that behavioral signature matches class)
1 | c1cc(-c2ccc3c(c2)CCO[C@H]3[C@@H]2CCCN2)on1 [Compound I-56, 5-((R)-1-((S)-pyrrolidin-2-yl)isochroman-6-yl)isoxazole] | ++ (5% ≤ ++ <25%) | +++ (25% ≤ +++ <50%) | ++ (5% ≤ ++ <25%) | ++ (5% ≤ ++ <25%) | +++ (25% ≤ +++ <50%) | + (LOQ ≤ + <5%) | ++ (5% ≤ ++ <25%) | ++ (5% ≤ ++ <25%) | + (LOQ ≤ + <5%) | + (LOQ ≤ + <5%)
2 | Clc1ccc2c(c1)CCO[C@@H]2[C@@H]1CCCN1 [Compound I-33, (S)-2-((S)-6-chloroisochroman-1-yl)pyrrolidine] | + (LOQ ≤ + <5%) | + (LOQ ≤ + <5%) | ++ (5% ≤ ++ <25%) | ++ (5% ≤ ++ <25%) | ++ (5% ≤ ++ <25%) | + (LOQ ≤ + <5%) | + (LOQ ≤ + <5%) | +++ (25% ≤ +++ <50%) | ++ (5% ≤ ++ <25%) | + (LOQ ≤ + <5%)
3 | c1cc2c(c3c1CO[C@H]3[C@@H]1CCCN1)OCO2 [Compound I-141, (S)-2-((R)-6,8-dihydro-[1,3]dioxolo[4,5-e]isobenzofuran-8-yl)-pyrrolidine] | ++ (5% ≤ ++ <25%) | ++ (5% ≤ ++ <25%) | ++ (5% ≤ ++ <25%) | +++ (25% ≤ +++ <50%) | ++ (5% ≤ ++ <25%) | ++ (5% ≤ ++ <25%) | + (LOQ ≤ + <5%) | ++ (5% ≤ ++ <25%) | + (LOQ ≤ + <5%) | ++++ (50% ≤ ++++)
4 | Fc1ccc2c(c1)[C@@H]([C@H]1CCN1)OCC2 [Compound I-88, (R)-2-((S)-7-fluoroisochroman-1-yl)azetidine] | + (LOQ ≤ + <5%) | ++ (5% ≤ ++ <25%) | +++ (25% ≤ +++ <50%) | ++ (5% ≤ ++ <25%) | ++ (5% ≤ ++ <25%) | + (LOQ ≤ + <5%) | + (LOQ ≤ + <5%) | ++ (5% ≤ ++ <25%) | + (LOQ ≤ + <5%) | +++ (25% ≤ +++ <50%)
5 | c1ccc2c(c1)CCO[C@H]2[C@@H]1CCN1 [Compound I-80, (S)-2-((R)-iso-chroman-1-yl)azetidine] | + (LOQ ≤ + <5%) | ++ (5% ≤ ++ <25%) | ++ (5% ≤ ++ <25%) | ++ (5% ≤ ++ <25%) | +++ (25% ≤ +++ <50%) | + (LOQ ≤ + <5%) | ++ (5% ≤ ++ <25%) | ++ (5% ≤ ++ <25%) | + (LOQ ≤ + <5%) | +++ (25% ≤ +++ <50%)
6 | N#Cc1cccc2c1[C@@H]([C@@H]1CCCN1)OCC2 [Compound I-37, (S)-1-((S)-pyrrolidin-2-yl)isochroman-8-carbonitrile] | + (LOQ ≤ + <5%) | + (LOQ ≤ + <5%) | ++ (5% ≤ ++ <25%) | + (LOQ ≤ + <5%) | ++ (5% ≤ ++ <25%) | + (LOQ ≤ + <5%) | + (LOQ ≤ + <5%) | ++ (5% ≤ ++ <25%) | + (LOQ ≤ + <5%) | +++ (25% ≤ +++ <50%)
7 | c1ccc2c(c1)CCO[C@@H]2[C@@H]1CCCCN1 [Compound I-71, (S)-2-((S)-isochroman-1-yl)piperidine] | + (LOQ ≤ + <5%) | + (LOQ ≤ + <5%) | +++ (25% ≤ +++ <50%) | ++ (5% ≤ ++ <25%) | ++ (5% ≤ ++ <25%) | + (LOQ ≤ + <5%) | ++ (5% ≤ ++ <25%) | ++ (5% ≤ ++ <25%) | + (LOQ ≤ + <5%) | + (LOQ ≤ + <5%)
8 | C[C@@]1([C@H]2CCCN2)OCc2cc(F)ccc21 [Compound I-124, (R)-2-((R)-5-fluoro-1-methyl-1,3-dihydroisobenzofuran-1-yl)pyrrolidine] | + (LOQ ≤ + <5%) | + (LOQ ≤ + <5%) | + (LOQ ≤ + <5%) | + (LOQ ≤ + <5%) | + (LOQ ≤ + <5%) | + (LOQ ≤ + <5%) | + (LOQ ≤ + <5%) | + (LOQ ≤ + <5%) | + (LOQ ≤ + <5%) | + (LOQ ≤ + <5%)
9 | c1cc2c(c3c1CCO[C@H]3[C@@H]1CCN1)OCO2 [Compound I-144, (S)-2-((R)-7,9-dihydro-6H-[1,3]dioxolo[4,5-h]isochromen-9-yl)azetidine] | ++ (5% ≤ ++ <25%) | ++ (5% ≤ ++ <25%) | ++ (5% ≤ ++ <25%) | ++ (5% ≤ ++ <25%) | +++ (25% ≤ +++ <50%) | + (LOQ ≤ + <5%) | ++ (5% ≤ ++ <25%) | +++ (25% ≤ +++ <50%) | + (LOQ ≤ + <5%) | +++ (25% ≤ +++ <50%)
10 | FC1(F)CO[C@H]([C@@H]2CCCN2)c2ccccc21 [Compound I-139, (S)-2-((S)-4,4-difluoroisochroman-1-yl)pyrrolidine] | + (LOQ ≤ + <5%) | + (LOQ ≤ + <5%) | ++ (5% ≤ ++ <25%) | ++ (5% ≤ ++ <25%) | ++ (5% ≤ ++ <25%) | + (LOQ ≤ + <5%) | + (LOQ ≤ + <5%) | +++ (25% ≤ +++ <50%) | + (LOQ ≤ + <5%) | + (LOQ ≤ + <5%)
11 | Fc1ccc2c(c1)CCO[C@@H]2[C@@H]1CCN1 [Compound I-89, (S)-2-((S)-6-fluoroisochroman-1-yl)azetidine] | ++ (5% ≤ ++ <25%) | ++ (5% ≤ ++ <25%) | ++ (5% ≤ ++ <25%) | ++ (5% ≤ ++ <25%) | +++ (25% ≤ +++ <50%) | + (LOQ ≤ + <5%) | ++ (5% ≤ ++ <25%) | +++ (25% ≤ +++ <50%) | + (LOQ ≤ + <5%) | + (LOQ ≤ + <5%)

Same assay, conditions: i.p. 15 min before behavioral test, most efficacious dose(s) of 3 doses

Row | SMILES | XG: anxiogenic (probability that behavioral signature matches class)
12 | c1cc(-c2ccc3c(c2)CCO[C@H]3[C@@H]2CCCN2)on1 [Compound I-56, 5-((R)-1-((S)-pyrrolidin-2-yl)isochroman-6-yl)isoxazole] | + (LOQ ≤ + <5%)
13 | Clc1ccc2c(c1)CCO[C@@H]2[C@@H]1CCCN1 [Compound I-33, (S)-2-((S)-6-chloroisochroman-1-yl)pyrrolidine] | + (LOQ ≤ + <5%)
14 | c1cc2c(c3c1CO[C@H]3[C@@H]1CCCN1)OCO2 [Compound I-141, (S)-2-((R)-6,8-dihydro-[1,3]dioxolo[4,5-e]isobenzofuran-8-yl)-pyrrolidine] | + (LOQ ≤ + <5%)
15 | Fc1ccc2c(c1)[C@@H]([C@H]1CCN1)OCC2 [Compound I-88, (R)-2-((S)-7-fluoroisochroman-1-yl)azetidine] | + (LOQ ≤ + <5%)
16 | c1ccc2c(c1)CCO[C@H]2[C@@H]1CCN1 [Compound I-80, (S)-2-((R)-iso-chroman-1-yl)azetidine] | + (LOQ ≤ + <5%)
17 | N#Cc1cccc2c1[C@@H]([C@@H]1CCCN1)OCC2 [Compound I-37, (S)-1-((S)-pyrrolidin-2-yl)isochroman-8-carbonitrile] | + (LOQ ≤ + <5%)
18 | c1ccc2c(c1)CCO[C@@H]2[C@@H]1CCCCN1 [Compound I-71, (S)-2-((S)-isochroman-1-yl)piperidine] | + (LOQ ≤ + <5%)
19 | C[C@@]1([C@H]2CCCN2)OCc2cc(F)ccc21 [Compound I-124, (R)-2-((R)-5-fluoro-1-methyl-1,3-dihydroisobenzofuran-1-yl)pyrrolidine] | + (LOQ ≤ + <5%)
20 | c1cc2c(c3c1CCO[C@H]3[C@@H]1CCN1)OCO2 [Compound I-144, (S)-2-((R)-7,9-dihydro-6H-[1,3]dioxolo[4,5-h]isochromen-9-yl)azetidine] | + (LOQ ≤ + <5%)
21 | FC1(F)CO[C@H]([C@@H]2CCCN2)c2ccccc21 [Compound I-139, (S)-2-((S)-4,4-difluoroisochroman-1-yl)pyrrolidine] | + (LOQ ≤ + <5%)
22 | Fc1ccc2c(c1)CCO[C@@H]2[C@@H]1CCN1 [Compound I-89, (S)-2-((S)-6-fluoroisochroman-1-yl)azetidine] | + (LOQ ≤ + <5%)
